Experimental data: US20220105058A1, “USE OF 3-O-SULFAMATE-16,16-DIMETHYL-D-HOMOEQUILENIN TO TREAT ONCOLOGICAL DISEASES” (priority 2018, published 2022)

Legend:
[1] = second class: low solubility and high permeability; first class: high solubility and high permeability; cited from earlier work
[2] = release of free hormone; cited from earlier work
[3] = test system: triple negative breast cancer MDA-MB-231 cell line; test: cell proliferation in MDA-MB-231; type: cell-based

Row | SMILES | class according to the biopharmaceutical classification system (BCS) [1] | further results
1 | CC(C)(C#N)c1cc(Cn2cncn2)cc(C(C)(C)C#N)c1 [anastrazole] | first class | 
2 | C[C@]12CC[C@@H]3c4ccc(OS(N)(=O)=O)cc4CC[C@H]3[C@@H]1CCC2=O [estrone sulfamate] |  | uterotropic activity [2]: strong uterotropic activity
3 | COc1cc([C@@H]2c3cc4c(cc3[C@@H](O[C@@H]3O[C@@H]5CO[C@@H](C)O[C@H]5[C@H](O)[C@H]3O)[C@H]3COC(=O)[C@H]23)OCO4)cc(OC)c1O [etoposide, reference compound] |  | inhibition of cell proliferation [3]: similar
4 | N#Cc1ccc(C(c2ccc(C#N)cc2)n2cncn2)cc1 [letrozole] | first class | 
